Assay results reported in ChEMBL document CHEMBL1201862, “PubChem BioAssay data set” (2004).
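Interpolation was linear, between the two tested concentrations surrounding the appropriate level; five concentrations were tested over 48 hours in 96-well plates. Abbreviation: GI50, concentration required for 50% inhibition of growth.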 Activity calls are given as the source filed them. No stated cut-off is given here; in the data, active = GI50 up to about 1.1 µM and inactive = higher.

Tests used:
Test in all cases: inhibition of tumour cell growth, NCI panel, 48 h
[1] = tested on: 786-0
[2] = tested on: A498
[3] = tested on: A549
[4] = tested on: ACHN
[5] = tested on: CAKI-1
[6] = tested on: CCRF-CEM
[7] = tested on: COLO 205
[8] = tested on: DU-145
[9] = tested on: EKVX
[10] = tested on: HCC 2998
[11] = tested on: HCT-116
[12] = tested on: HCT-15
[13] = tested on: HL-60
[14] = tested on: HOP-62
[15] = tested on: HOP-92
[16] = tested on: HT-29
[17] = tested on: IGROV-1
[18] = tested on: K562
[19] = tested on: KM12
[20] = tested on: LOX IMVI
[21] = tested on: M14
[22] = tested on: MCF7
[23] = tested on: MDA-MB-231
[24] = tested on: MDA-MB-435
[25] = tested on: MDA-N
[26] = tested on: MOLT-4
[27] = tested on: Malme-3M
[28] = tested on: NCI-H226
[29] = tested on: NCI-H23
[30] = tested on: NCI-H460
[31] = tested on: NCI-H522
[32] = tested on: NCI/ADR-RES
[33] = tested on: OVCAR-3
[34] = tested on: OVCAR-4
[35] = tested on: OVCAR-5
[36] = tested on: OVCAR-8
[37] = tested on: PC-3
[38] = tested on: RXF 393
[39] = tested on: SF-268
[40] = tested on: SF-295
[41] = tested on: SF-539
[42] = tested on: SK-MEL-28
[43] = tested on: SK-MEL-2
[44] = tested on: SK-MEL-5
[45] = tested on: SK-OV-3
[46] = tested on: SN12C
[47] = tested on: SNB-19
[48] = tested on: SNB-75
[49] = tested on: SR
[50] = tested on: SW-620
[51] = tested on: T47D
[52] = tested on: TK-10
[53] = tested on: U-251
[54] = tested on: UACC-257
[55] = tested on: UACC-62
[56] = tested on: UO-31

## Cc1ccc2c(c1)Nc1cc(C(F)(F)F)ccc1[PH]2=O (stereo unspecified)
[1]
  GI50: 66.4 µM (inactive)
[2]
  GI50: 9.53 µM (inactive)
[3]
  GI50: 30.4 µM (inactive)
[4]
  GI50: 16.6 µM (inactive)
[5]
  GI50: 47.4 µM (inactive)
[6]
  GI50: 14.9 µM (inactive)
[7]
  GI50: 16.1 µM (inactive)
[8]
  GI50: 45.6 µM (inactive)
[9]
  GI50: 3.78 µM (inactive)
[10]
  GI50: 44.6 µM (inactive)
[11]
  GI50: 42.2 µM (inactive)
[12]
  GI50: 43.6 µM
[13]
  GI50: 29.3 µM (inactive)
[14]
  GI50: 29.1 µM (inactive)
[15]
  GI50: 14.2 µM (inactive)
[16]
  GI50: 21.9 µM (inactive)
[17]
  GI50: 25.9 µM (inactive)
[18]
  GI50: 13.1 µM (inactive)
[19]
  GI50: 31.5 µM (inactive)
[20]
  GI50: 26.1 µM (inactive)
[21]
  GI50: 65.2 µM (inactive)
[22]
  GI50: 9.59 µM (inactive)
[23]
  GI50: 13.7 µM (inactive)
[24]
  GI50: 37.6 µM (inactive)
[25]
  GI50: 41.2 µM (inactive)
[26]
  GI50: 11 µM (inactive)
[27]
  GI50: 31.8 µM (inactive)
[28]
  GI50: 21.3 µM (inactive)
[29]
  GI50: 22.2 µM (inactive)
[30]
  GI50: 27.7 µM (inactive)
[31]
  GI50: 21.7 µM (inactive)
[32]
  GI50: 67.1 µM (inactive)
[33]
  GI50: 30 µM (inactive)
[34]
  GI50: 11.6 µM (inactive)
[35]
  GI50: 50.2 µM (inactive)
[36]
  GI50: 63.5 µM (inactive)
[37]
  GI50: 21.7 µM (inactive)
[38]
  GI50: 23.2 µM (inactive)
[39]
  GI50: 34 µM (inactive)
[40]
  GI50: 5.57 µM (inactive)
[41]
  GI50: 21.8 µM (inactive)
[42]
  GI50: 78.5 µM (inactive)
[43]
  GI50: 31 µM (inactive)
[44]
  GI50: 15.3 µM (inactive)
[45]
  GI50: 65.2 µM (inactive)
[46]
  GI50: 32.8 µM (inactive)
[47]
  GI50: 18.9 µM (inactive)
[48]
  GI50: 11.8 µM (inactive)
[49]
  GI50: 37.4 µM (inactive)
[50]
  GI50: 23.4 µM (inactive)
[51]
  GI50: 27.6 µM (inactive)
[52]
  GI50: 57.9 µM (inactive)
[53]
  GI50: 27.2 µM (inactive)
[54]
  GI50: 28.2 µM (inactive)
[55]
  GI50: 10.5 µM (inactive)
[56]
  GI50: 0.225 µM (active)
